Results from patent US6355628B1, “Combination therapy using pentafluorobenzenesulfonamides” (priority 1999, dated 2002).

Key:
[1] = Weight loss and mortality in MX-1 xenograft study; type: in vivo, athymic nude mice; settings: efficacious dose, administered alone
Description: Its activity is not affected by the multidrug resistance (MDR) phenotype.
Administration of suboptimal doses of 3 mg/kg cisplatin i.v. bolus or 15 mg/kg/hr compound 1 i.v. infusion for 4 hours was compared with the efficacy of coadministration against MX-1 tumors.

[2] = tested on: MX-1 human mammary tumor xenografts; assay: MX-1 human mammary tumor xenografts in athymic nude mice, tumor growth; type: in vivo
[3] = tested on: various tumor cell lines; assay: Growth and clonogenic potential of tumor cell lines in culture; type: cell-based
[4] = tested on: β-tubulin; assay: Tubulin polymerization / binding to β-tubulin; type: biochemical; settings: by covalently binding to β-tubulin

Compound | body weight loss accompanying efficacy, single agent [1] | efficacy against MX-1 tumor, single agent ([2]; efficacious dose, not stated) | activity versus multidrug resistance (MDR) phenotype [3] | growth and clonogenic potential of various tumor cell lines in culture [3] | tubulin polymerization [4] | inhibiting the growth of MX-1 xenografts, single agent ([2]; 30 mg/kg/hr infused i.v. for 4 hours)
N.N.[Cl][Pt][Cl] [Cisplatin, cis-diaminedichloroplatinum (II), reference compound] | accompanied by body weight loss | very efficacious | – | – | – | –
COc1ccc(NS(=O)(=O)c2c(F)c(F)c(F)c(F)c2F)cc1F.[Na] [Compound 1, 2-Fluoro-1-methoxy-4-(pentafluorophenylsulfonamido)benzene, sodium salt] | accompanied by body weight loss | – | not affected | inhibits the growth and clonogenic potential | prevents tubulin polymerization | very effective
